Patent US5256686A, “Phenylalkan(en)oic acid” (Ono Pharmaceutical Co., Ltd., priority 1989, dated 1993)
pIC50: −log10 of the molar value.

What follows are compounds tested against T1, human PMNL LTB4 receptor (Homo sapiens, UniProt Q15722) (assay: Binding affinity of 3H-LTB4 antagonist to human PMNL LTB4 receptor (inhibition of specific 3H-LTB4 binding)). Details: 1 nM 3H-LTB4, human PMNLs, 4° C., 20 min.
T1 construct: endogenous in cells; host or cells: human polymorphonuclear leukocytes (PMNL), intact cells
T1 sequence (Q15722 whole entry): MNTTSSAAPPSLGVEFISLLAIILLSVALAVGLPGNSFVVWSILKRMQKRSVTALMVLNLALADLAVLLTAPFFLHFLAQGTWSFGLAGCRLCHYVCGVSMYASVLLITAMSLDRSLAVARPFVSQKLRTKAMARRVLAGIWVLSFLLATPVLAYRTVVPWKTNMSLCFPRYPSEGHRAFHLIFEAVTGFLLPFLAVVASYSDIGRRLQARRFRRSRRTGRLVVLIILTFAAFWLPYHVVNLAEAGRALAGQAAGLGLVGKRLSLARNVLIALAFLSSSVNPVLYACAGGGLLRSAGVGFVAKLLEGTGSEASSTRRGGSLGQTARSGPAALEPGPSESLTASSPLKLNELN
Description: Human PMNLS (1×10^7 cells) were incubated with 1 nM ^3 H-LTB4 in Hanks balanced salt solution (1 ml) at 4° C. for 20 min. in the presence or absence of increasing concentrations of unlabeled LTB4 or various compounds. Free ^3 H-LTB4 was separated from PMNLs-bound ligands by vacuum filteration through Whatman GF/B or C glass fiber filters. The filters were then washed rapidly 4 times with 2.5 ml of the ice-cold phosphate buffered saline. The radioactivity retained in the filter was determined by liquid scintillation counting. Specific binding was defined as the difference between total binding and binding in the presence of 3 μM LTB4 (nonspecific binding). The inhibitory effect of specific ^3 H-LTB4 binding was calculated from the following equation.
The percentage of inhibition (%)=100-(B1 /B0 ×100)
B1 : specific ^3 H-LTB4 binding in presence of antagonist
B0 : specific ^3 H-LTB4 binding in absence of antagonist
For `CCCCCCCCCCCCOc1ccc(NC(=O)CCCC(=O)N(C)C)cc1CCC(=O)O` [1 (c), 3-[1-n-dodecyloxy-4-(4-dimethylaminocarbonylbutanamido)benzen-2-yl]propionic acid], the pIC50 was 6.00. `CCCOc1ccc(/C=C/CCCCOc2ccc(NC(=O)CCCC(=O)N(C)C)cc2CCC(=O)O)cc1` [1 (e), 3-[1-[6-(4-n-propoxyphenyl)hex-5E-enyl]oxy-4-(4-dimethylaminocarbonylbutanamido)benzen-2-yl]propionic acid] gave a pIC50 of 7.10. `C=CCOc1ccc(/C=C/CCCCOc2ccc(NC(=O)CCCC(=O)N(C)C)cc2CCC(=O)O)cc1` [1 (f), 3-[1-[6-[4-(2-propenyl)oxyphenyl]hex-5E-enyl]oxy-4-(4-dimethylaminocarbonylbutanamido)benzen-2-yl]propionic acid] was tested, and the pIC50 was 7.30. `CCCCCOc1ccc(/C=C/CCCCOc2ccc(NC(=O)CCCC(=O)N(C)C)cc2CCC(=O)O)cc1` [1 (i), 3-[1-[6-(4-n-pentyloxyphenyl)hex-5E-enyl]oxy-4-(4-dimethylaminocarbonylbutanamido)benzen-2-yl]propionic acid] gave a pIC50 of 6.40. In the case of `COc1ccc(CCCCCCOc2ccc(NC(=O)CCCC(=O)N(C)C)cc2CCC(=O)O)cc1` [1 (j), 3-[1-[6-(4-methoxyphenyl)-n-hexyl]oxy-4-(4-dimethylaminocarbonylbutanamido)benzen-2-yl]propionic acid], the pIC50 was 6.70. For `COc1cccc(/C=C/CCCCOc2ccc(NC(=O)CCCC(=O)N(C)C)cc2CCC(=O)O)c1` [1 (m), 3-[1-[6-(3-methoxyphenyl)hex-5E-enyl]oxy-4-(4-dimethylaminocarbonylbutanamido)benzen-2-yl]propionic acid], the pIC50 was 6.31. In the case of `COc1ccc(/C=C/CCCCOc2ccc(NC(=O)CCCC(=O)N3CCc4ccccc43)cc2CCC(=O)O)cc1` [1 (n), 3-[1-[6-(4-methoxyphenyl)hex-5E-enyl]oxy-4-[4-(1-indolinyl)carbonylbutanamido]benzen-2-yl]propionic acid], the pIC50 was 7.15. `CSc1ccc(/C=C/CCCCOc2ccc(NC(=O)CCCC(=O)N(C)C)cc2CCC(=O)O)cc1` [1 (q), 3-[1-[6-(4-methylthiophenyl)hex-5E-enyl]oxy-4-(4-dimethylaminocarbonylbutanamido)benzen-2-yl]propionic acid] showed a pIC50 of 7.30. Compound `COc1ccc(/C=C/CCCCOc2ccc(NC(=O)CCCC(=O)N(C)C)cc2CCC(=O)O)cc1OC` [1 (r), 3-[1-[6-(3,4-dimethoxyphenyl)hex-5E-enyl]oxy-4-(4-dimethylaminocarbonylbutanamido)benzen-2-yl]propionic acid] has a pIC50 of 5.96. For `Cc1ccc(/C=C/CCCCOc2ccc(NC(=O)CCCC(=O)N(C)C)cc2CCC(=O)O)cc1` [1 (s), 3-[1-[6-(4-methylphenyl)hex-5E-enyl]oxy-4-(4-dimethylaminocarbonylbutanamido)benzen-2-yl]propionic acid], the pIC50 was 6.77. `CN(C)C(=O)CCCC(=O)Nc1ccc(OCCCC/C=C/c2ccc(Cl)cc2)c(CCC(=O)O)c1` [1 (t), 3-[1-[6-(4-chlorophenyl)hex-5E-enyl]oxy-4-(4-dimethylaminocarbonylbutanamido)benzen-2-yl]propionic acid] gave a pIC50 of 6.66. With `COc1ccc(/C=C/CCCCOc2ccc(NC(=O)c3cccc(C(=O)N(C)C)c3)cc2CCC(=O)O)cc1` [1 (u), 3-[1-[6-(4-methoxyphenyl)hex-5E-enyl]oxy-4-(3-dimethylaminocarbonylbenzamido)benzen-2-yl]propionic acid] the pIC50 was 7.10. `COc1ccc(/C=C/CCCCOc2ccc(NC(=O)CCCC(=O)O)cc2/C=C/C(=O)O)cc1` [2 (a), 3-[1-[6-(4-methoxyphenyl)hex-5E-enyl]oxy-4-(4-carboxylbutanamido)benzen-2-yl]-E-acrylic acid] showed a pIC50 of 6.70. In the case of `COc1ccc(/C=C/CCCCOc2ccc(NC(=O)c3ccccc3)cc2CCC(=O)O)cc1` [3 (a), 3-[1-[6-(4-methxoyphenyl)hex-5E-enyl]oxy-4-benzamidobenzen-2-yl]propionic acid], the pIC50 was 6.70.
